Results on 20 molecules are retold here after US20240425512A1, “NITROGEN-CONTAINING HETEROCYCLIC COMPOUND, PHARMACEUTICAL COMPOSITION THEREOF AND APPLICATION THEREOF” (280 Bio, Inc., priority 2023, published 2024).

Holding throughout (type): cell-based
Experiment [1] relates to LS513 colon cancer cell with KRAS G12D mutation. Description: Proliferation inhibition on RAS cell lines measured by CTG, LS513. The note with it: LS513 cells, incubated for 6 days, CellTiter Glo, read-out: IC50 (LS513^f). From the text:
(§1) NCI-H358 is a human non-small cell lung cancer cell line with KRAS G12C mutation; AGS is a gastric cancer cell line with KRAS G12D mutation; SW620 is a colon cancer cell with KRAS G12V mutation; NCI-H460 is a non-small cell lung cancer cell with KRAS Q61H mutation; MKN1 is a wild-type gastric cancer cell with KRAS-amplified; LS513 is a colon cancer cell with KRAS G12D mutation; LoVo is a colon cancer cell with KRAS G13D mutation; NCI-H441 is a lung cancer cell with KRAS G12V mutation, and Capan-2 is a pancreatic cancer cell with KRAS G12V mutation.
(§2) The proliferation inhibitory effect of the compounds on various mutations was evaluated by determining the proliferation inhibitory activity of the compounds on these cell lines.
(§3) The assay was conducted on either 384-well plates or 96-well plates. The procedures are as follows:
(§4) The cell suspensions were added to 384- or 96-well plates (384-well plate: 50 μL; 96-well plate: 100 μL) except for peripheral wells. The plates were placed in a carbon dioxide incubator overnight. NCI-H358, AGS, NCI-H460, MKN-1, LS513, LoVo, and NCI-H441 were placed in a 5%, 370 carbon dioxide incubator overnight, and SW620 was placed in a 0%, 370 carbon dioxide incubator overnight. The HPD300 micro-dosing instrument was used to add the corresponding concentration of compound to each well (9-10 concentration gradients of compound were obtained by 3-fold dilution). Cell plates were incubated in a carbon dioxide incubator for 5-6 days. NCI-H358, AGS, NCI-H460 and MKN-1 were incubated at 5%, 37° incubator and SW620 was incubated at 0%, 370 incubator. On the day of plate measurement, the 384- or 96-well plates were first equilibrated at room temperature for 10-30 min, then CellTiter Glo reagent (384-well plate: 25 μL; 96-well plate: 100 μL) was added to the 384- or 96-well plate, shaken for 10 min away from light, and incubated for 10 min. The plates were placed into Victor NIVO or ENVIDION reader plates, and XLFit was utilized to plot the pharmacodynamic inhibition curve and calculate the IC50 value. “IC50>10 μM” is denoted by “*”, “10 μM≥IC50≥1 μM” is denoted by “**”, and “1 μM≥IC50>100 nM” is denoted by “***”, “IC50<100 nM” is denoted by “****”
A general note: In ATP-based viability assays light output follows the ATP content of the culture.

The test system of experiment [2] is Capan-2 pancreatic cancer cell with KRAS G12V mutation. Description: Proliferation inhibition on RAS cell lines measured by CTG, Capan-2. The note with it: Homo sapiens, 144 h; Table 2; Capan-2 cells, incubated for 6 days, CellTiter Glo; read-out: IC50 (Capan-2^i).
Source text: as §1, §2, §3, §4

Experiment [3] concerns AGS gastric cancer cell line with KRAS G12D mutation. The experiment in a line: Proliferation inhibition on RAS cell lines measured by CTG (CellTiter Glo), AGS. The settings on record: Table 1, AGS cells, incubated for 5 days.
Source text: as §1, §2, §3, §4

For experiment [4], the system named is NCI-H358 human non-small cell lung cancer cell line with KRAS G12C mutation. The experiment in a line: Proliferation inhibition on RAS cell lines measured by CTG, NCI-H358. The settings on record: Table 1, NCI-H358 cells, incubated for 6 days, CellTiter Glo, read-out: IC50 (H358 ^b).
Source text: as §1, §2, §3, §4

For experiment [5], the system named is SW620 colon cancer cell with KRAS G12V mutation. Description: Proliferation inhibition on RAS cell lines measured by CTG, SW620. The settings on record: Table 1, SW620 cells, incubated for 6 days, CellTiter Glo, read-out: IC50 (SW620 ^c).
Source text: as §1, §2, §3, §4

In experiment [6] the test system is NCI-H460 non-small cell lung cancer cell with KRAS Q61H mutation. Description: Proliferation inhibition on RAS cell lines measured by CTG, NCI-H460. The settings on record: Table 1, NCI-H460 cells, incubated for 6 days, CellTiter Glo, read-out: IC50 (NCI-H460 ^d).
Source text: as §1, §2, §3, §4

Experiment [7] relates to MKN1 wild-type gastric cancer cell with KRAS-amplified. The experiment in a line: Proliferation inhibition on RAS cell lines measured by CTG, MKN1. The note with it: Table 1, MKN1 cells, incubated for 6 days, CellTiter Glo, read-out: IC50 (MKN1 ^e).
Source text: as §1, §2, §3, §4

In experiment [8] the test system is LoVo colon cancer cell with KRAS G13D mutation. The experiment in a line: Proliferation inhibition on RAS cell lines measured by CTG, LoVo. The note with it: Table 1, LoVo cells, incubated for 6 days, CellTiter Glo, read-out: IC50 (LoVo^g).
Source text: as §1, §2, §3, §4

Experiment [9] concerns NCI-H441 lung cancer cell with KRAS G12V mutation. The experiment in a line: Proliferation inhibition on RAS cell lines measured by CTG, NCI-H441. The settings on record: NCI-H441 cells, incubated for 6 days, CellTiter Glo.
Source text: as §1, §2, §3, §4

Where [10] appears, read: Homo sapiens, LS-513, 144 h, Table 2.
Where [11] appears, read: Homo sapiens, LS-513, 144 h, Table 1.
The mark [12] stands for this setting: Homo sapiens, NCI-H441, 144 h, Table 1.
The mark [13] stands for this setting: Homo sapiens, NCI-H441, 144 h, Table 2.

Where two headings read alike, the source gives them in different places.

As to `C#Cc1c(F)ccc2cc(O)cc(-c3ncc4c(N5CCCCCN5)nc(OCC56CCCN5CCC6)nc4c3F)c12` [Compound 25], the IC50 in experiment [1] (setting [10]) was less than 100 nM; in experiment [2] it was 100 to 1000 nM.
As to `C#Cc1c(F)ccc2cc(O)cc(-c3ncc4c(N5CCOCCN5)nc(OC[C@@]56CCCN5C[C@H](F)C6)nc4c3F)c12` [Compound 7], the IC50 was less than 100 nM in [3]; less than 100 nM in experiment [4]; less than 100 nM in [5]; 1000 to 10000 nM in experiment [6]; 100 to 1000 nM in experiment [7].
With `C#Cc1c(F)ccc2cccc(-c3ncc4c(N5CCCCCN5)nc(OC[C@@]56CCCN5C[C@H](F)C6)nc4c3F)c12` [Compound 11], the 50% inhibitory concentration (IC50) was less than 100 nM in experiment [1] (setting [11]); 100 to 1000 nM in [8] (Homo sapiens, LoVo, 144 h); 100 to 1000 nM in [9] (setting [12]).
As to `C#Cc1c(F)ccc2cc(O)cc(-c3ncc4c(N5CCCCCN5)nc(OCC56CCCN5CC(=C)C6)nc4c3F)c12` (stereo not shown) [Compound 24], the values for the IC50 in experiment [1] (setting [10]) and in experiment [9] (setting [13]) were less than 100 nM and 100 to 1000 nM, respectively.
The corresponding values for `C#Cc1c(F)ccc2cc(OC(=O)C(C)C)cc(-c3ncc4c(N5CCCCCN5)nc(OC[C@@]56CCCN5C[C@H](F)C6)nc4c3F)c12` [Compound 23] are less than 100 nM and less than 100 nM.
For the molecule `CCc1c(F)ccc2cc(O)cc(-c3ncc4c(N5CCOCCN5)nc(OC[C@@]56CCCN5C[C@H](F)C6)nc4c3F)c12` [Compound 8], the IC50 in experiment [3] (Homo sapiens, 120 h) is less than 100 nM; in experiment [4] (Homo sapiens, 144 h), less than 100 nM; in experiment [5] (Homo sapiens, SW-620, 144 h), less than 100 nM; in experiment [6] (Homo sapiens, 144 h), 100 to 1000 nM; in experiment [7] (Homo sapiens, MKN-1, 144 h), less than 100 nM.
Regarding `CCc1c(F)ccc2cc(O)cc(-c3ncc4c(N5CCCCCN5)nc(OC[C@@]56CCCN5C[C@H](F)C6)nc4c3F)c12` [Compound 3], the IC50 in experiment [3] (Homo sapiens, 120 h) is less than 100 nM; in experiment [4] (Homo sapiens, 144 h) it was less than 100 nM; in [5] (Homo sapiens, SW-620, 144 h), less than 100 nM; in experiment [6] (Homo sapiens, 144 h), 100 to 1000 nM; in [7] (Homo sapiens, MKN-1, 144 h) it was less than 100 nM.
For `C#Cc1c(F)ccc2cc(O)cc(-c3ncc4c(N5CCCCCO5)nc(OC[C@@]56CCCN5C[C@H](F)C6)nc4c3F)c12` [Compound 9], the IC50 in experiment [1] (setting [11]) is less than 100 nM; in experiment [8] (Homo sapiens, LoVo, 144 h), less than 100 nM; in experiment [9] (setting [12]) it was less than 100 nM.
Turning to `CCc1c(F)ccc2cc(O)cc(-c3ncc4c(N5CCCCCO5)nc(OC[C@@]56CCCN5C[C@H](F)C6)nc4c3F)c12` [Compound 10], the IC50 was less than 100 nM in [1] (setting [11]); 100 to 1000 nM in experiment [8] (Homo sapiens, LoVo, 144 h); 100 to 1000 nM in experiment [9] (setting [12]).
Take `C#Cc1c(F)ccc2cc(OC(=O)NC)cc(-c3ncc4c(N5CCCCCN5)nc(OC[C@@]56CCCN5C[C@H](F)C6)nc4c3F)c12` [Compound 19]: the IC50 in experiment [1] (setting [10]) is less than 100 nM; in [9] (Homo sapiens, 144 h, Table 2) it was 1000 to 10000 nM.
`C#Cc1c(F)ccc2cc(O)cc(-c3ncc4c(N5CCCCCCN5)nc(OC[C@@]56CCCN5C[C@H](F)C6)nc4c3F)c12` [Compound 15]: the IC50 in [1] (setting [10]) and in experiment [9] (setting [13]) was 100 to 1000 nM each time.
In the case of `CCc1c(F)ccc2cc(O)cc(-c3ncc4c(N5CCCCCN5)nc(OCC5(CN(C)C)CC5)nc4c3F)c12` [Compound 28], the IC50 is less than 100 nM in experiment [1] (setting [10]) and 100 to 1000 nM in experiment [2].
For `C#Cc1c(F)ccc2cc(O)cc(-c3ncc4c(N5CCCCCN5)nc(OCC5(CN6CCOCC6)CC5)nc4c3F)c12` [Compound 29] the same measures were less than 100 nM and less than 100 nM.
Take `CCc1c(F)ccc2cc(O)cc(-c3ncc4c(N5CC(C)(O)CCN5)nc(OCC56CCCN5CC(F)C6)nc4c3F)c12` (single isomer, unassigned) [Compound 2-1]: the IC50 in experiment [3] is less than 100 nM; in [4] it was less than 100 nM; in experiment [5], less than 100 nM; in experiment [6], 1000 to 10000 nM; in [7], less than 100 nM; in experiment [1] (Table 1) it was less than 100 nM. The IC50 in [8] is less than 100 nM; in [9] (Table 1, read-out: IC50 (NCI-H441^h)) it was 100 to 1000 nM.
Turning to `C#Cc1c(F)ccc2cc(O)cc(-c3nc(OC)c4c(N5CCCCCN5)nc(OC[C@@]56CCCN5C[C@H](F)C6)nc4c3F)c12` [Compound 33], the results for the IC50 in experiment [1] (setting [10]) and in [2] were less than 100 nM and 100 to 1000 nM, respectively.
`C#Cc1c(F)ccc2cc(O)cc(-c3ncc4c(N5CCCCN5C(=O)OC(C)(C)C)nc(OC[C@@]56CCCN5C[C@H](F)C6)nc4c3F)c12` [Compound 17]: the values for the IC50 in experiment [1] (setting [10]) and in experiment [9] (setting [13]) were less than 100 nM and 100 to 1000 nM, respectively.
Consider `CCc1c(F)ccc2cc(O)cc(-c3ccc4c(N5CCCCCN5)nc(OC[C@@]56CCCN5C[C@H](F)C6)nc4c3)c12` [Compound 27], for which the results for the 50% inhibitory concentration (IC50) in [1] (setting [10]) and in [2] were 100 to 1000 nM and 1000 to 10000 nM, respectively.
The corresponding values for `Oc1cc(-c2ncc3c(N4CCCCCN4)nc(OC[C@@]45CCCN4C[C@H](F)C5)nc3c2F)c2c(Cl)cccc2c1` [Compound 35] are less than 100 nM and 100 to 1000 nM.
With `C#Cc1cccc2cc(O)cc(-c3ncc4c(N5CCCCCN5)nc(OC[C@@]56CCCN5C[C@H](F)C6)nc4c3F)c12` [Compound 36], the IC50 in experiment [1] (setting [10]) and in experiment [2] was less than 100 nM each time.
In the case of `C#Cc1c(F)ccc2cc(O)cc(-c3ccc4c(N5CCCCCN5)nc(OC[C@@]56CCCN5C[C@H](F)C6)nc4c3)c12` [Compound 26], the IC50 was 100 to 1000 nM in [1] (setting [10]) and 1000 to 10000 nM in [2].

Broadly, the IC50 is the concentration that gives 50% inhibition.
